Data published in US20140005163A1 (NOVARTIS AG, priority 2010, published 2014).
Values after ≈ are worked out from the molar mass of the structure shown.

Key:
[1] = system: PKB Ser473 phosphorylation in Rat1-myr-HA-p110 alpha cells; assay: Reverse protein array assay, PKB Ser473 phosphorylation in Rat1-myr-p110 alpha cells; format: cell-based; conditions: 0.5 h, pAkt Ser473, 30 minutes compound incubation, read-out: p-PKB IC50
Outline: (§1)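 Lysates were arrayed at four dilutions, and phospho-PKB Ser473 was quantified by relative fluorescence signal. They came from Rat1-myr-HA-p110 alpha, beta or delta cells exposed for 30 min at 37 °C to an 8-point compound series with 0.2% DMSO constant.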

PI3K delta = target: T1, PI3K delta (Homo sapiens, UniProt O00329); assay: PI3K delta kinase assay (Kinase-Glo luminescence); format: biochemical
T1 construct: for the full-length p110-d subunit are generated and fused by overlapping PCR; p85(iSH2) fusion partner (see partner chain) (N); His tag (C); made in house; host or cells: baculovirus; Tn5 (Trichoplusia ni) or TiniPro insect cells
T1 sequence (O00329 with tags, fused parts or gaps limits assumed): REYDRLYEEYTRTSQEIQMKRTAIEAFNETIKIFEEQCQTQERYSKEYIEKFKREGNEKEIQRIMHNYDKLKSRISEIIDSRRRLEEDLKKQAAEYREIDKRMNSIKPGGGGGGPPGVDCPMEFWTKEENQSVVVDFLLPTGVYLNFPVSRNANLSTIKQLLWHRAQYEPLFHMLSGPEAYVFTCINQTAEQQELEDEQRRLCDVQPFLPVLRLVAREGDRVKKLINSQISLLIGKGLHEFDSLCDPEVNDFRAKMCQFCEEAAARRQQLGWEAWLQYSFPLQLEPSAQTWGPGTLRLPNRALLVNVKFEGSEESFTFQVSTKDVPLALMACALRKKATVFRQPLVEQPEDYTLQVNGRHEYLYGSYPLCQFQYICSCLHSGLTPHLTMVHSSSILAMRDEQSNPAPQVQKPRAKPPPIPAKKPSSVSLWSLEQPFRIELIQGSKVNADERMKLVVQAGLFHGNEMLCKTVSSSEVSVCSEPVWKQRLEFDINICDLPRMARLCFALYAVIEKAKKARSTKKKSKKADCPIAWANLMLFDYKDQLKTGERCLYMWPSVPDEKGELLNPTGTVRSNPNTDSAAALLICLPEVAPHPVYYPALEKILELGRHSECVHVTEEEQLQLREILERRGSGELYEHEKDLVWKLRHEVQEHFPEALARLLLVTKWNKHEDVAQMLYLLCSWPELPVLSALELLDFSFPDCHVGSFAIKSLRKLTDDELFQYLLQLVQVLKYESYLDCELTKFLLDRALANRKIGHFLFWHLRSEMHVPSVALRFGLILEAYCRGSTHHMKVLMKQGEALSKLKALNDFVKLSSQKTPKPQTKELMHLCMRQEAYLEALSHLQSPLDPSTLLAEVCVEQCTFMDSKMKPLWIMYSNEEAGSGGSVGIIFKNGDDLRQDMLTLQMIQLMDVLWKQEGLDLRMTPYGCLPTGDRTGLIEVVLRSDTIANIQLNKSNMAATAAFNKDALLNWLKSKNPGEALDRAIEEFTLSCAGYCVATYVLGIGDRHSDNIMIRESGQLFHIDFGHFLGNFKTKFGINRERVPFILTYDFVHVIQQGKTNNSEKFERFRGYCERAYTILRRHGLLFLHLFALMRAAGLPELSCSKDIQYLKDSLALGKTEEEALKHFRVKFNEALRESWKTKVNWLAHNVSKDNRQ
Outline: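 Construct BV-1060, p85 iSH2–linker–full-length p110δ, His-tagged, at 10 nM, with 1 μM ATP and 10 μg/mL phosphatidylinositol in pH 7.5 Tris, 3 mM MgCl2, 50 mM NaCl, 0.05% CHAPS. Run 60 min at room temperature; remaining ATP read by Kinase-Glo luminescence; IC50 from 4-parameter logistic fit of 8 concentrations.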

PI3K beta = target: T2, PI3K beta (Homo sapiens, UniProt P42338); assay: PI3K beta kinase assay (Kinase-Glo luminescence); format: biochemical
T2 construct: for the full-length p110-b subunit are generated and fused by overlapping PCR; p85(iSH2) fusion partner (see partner chain) (N); His tag (C); made in house; host or cells: baculovirus; Tn5 (Trichoplusia ni) or TiniPro insect cells
Description: (§2) In a more preferred assay, the kinase reaction is performed in a final volume of 10 μL per well of a low volume non binding CORNING, 384 well black plate (Cat. No. #3676). The final concentrations of ATP and phosphatidyl inositol (PI) in the assay are 1 μM and 10 μg/mL respectively. The reaction is started by the addition of ATP.
(§3) The components of the assay are added per well as follows:
(§4) […] in 90% DMSO per well, in columns 1-20, 8 concentrations (1/3 and 1/3.33 serial dilution step) in single. • Low control: […] of 90% DMSO in half the wells of columns 23-24 (0.45% in final). • High control: […] of reference compound (e.g. compound of Example 7 in WO 2006/122806) in the other half of columns 23-24 (2.5 μM in final). • Standard: […] of reference compound as just mentioned diluted as the test compounds in columns 21-22 • 20 mL ‘buffer’ are prepared per assay: • 200 μL of 1M TRIS HCl pH7.5 (10 mM in final) • 60 μL of 1M MgCl2 (3 mM in final) • 500 μL of 2M NaCl (50 mM in final) • 100 μL of 10% CHAPS (0.05% in final) • 200 μL of 100 mM DTT (1 mM in final) • 18.94 mL of nanopure water • 10 mL ‘PI’ are prepared per assay: • 200 μL of 1 mg/ml L-alpha-Phosphatidylinositol (Liver Bovine, Avanti Polar Lipids Cat. No. 840042C MW=909.12) prepared in 3% OctylGlucoside (10 μg/ml in final) • 9.8 mL of ‘buffer’ • 10 mL ‘ATP’ are prepared per assay: • 6.7 μL of 3 mM stock of ATP giving a final concentration of 1 μM per well • 10 mL of ‘buffer’ • 2.5 mL of each PI3K construct are prepared per assay in ‘PI’ with the following final concentration: • 10 nM PI3K alfa EMV B1075 • 25 nM beta EMV BV949 • 10 nM delta EMV BV1060 • 150 nM gamma EMV BV950 • 5 μL of ‘PI/PI3K’ are added per well. • 5 μl ‘ATP’ are added per well to start the reaction. • The plates are then incubated at room temperature for 60 minutes (alfa, beta, delta) or 120 minutes (gamma). • The reaction is terminated by the addition of 10 μL Kinase-Glo (Promega Cat. No. #6714). • The assay plates are read after 10 minutes in Synergy 2 reader (BioTek, Vermont USA) with an integration time of 100 milliseconds and sensitivity set to 191. • Output: The High control is around 60'000 counts and the Low control is 30'000 or lower • This luminescence assay gives a useful Z′ ratio between 0.4 and 0.7
PI3Kβ BV-949 p85(iSH2)-Gly Linker-p110b(Full-Length)-C-Term his Tag
(§5) IC50 is determined by a four parameter curve fitting routine that comes along with “excel fit”. […] Alternatively, IC50 values are calculated using idbsXLfit model 204, which is a 4 parameter logistic model.

mTOR = target: T3, mTOR (Homo sapiens, UniProt P42345); assay: Biochemical assay for m-TOR by TR-FRET; conditions: 8 μM ATP, 400 nM GFP-4EBP1, 0.5 nM mTOR
T3 construct: purchased Invitrogen Corporation (Carlsbad/CA, USA) PV4753
T3 sequence (P42345 1360-2549 limits assumed): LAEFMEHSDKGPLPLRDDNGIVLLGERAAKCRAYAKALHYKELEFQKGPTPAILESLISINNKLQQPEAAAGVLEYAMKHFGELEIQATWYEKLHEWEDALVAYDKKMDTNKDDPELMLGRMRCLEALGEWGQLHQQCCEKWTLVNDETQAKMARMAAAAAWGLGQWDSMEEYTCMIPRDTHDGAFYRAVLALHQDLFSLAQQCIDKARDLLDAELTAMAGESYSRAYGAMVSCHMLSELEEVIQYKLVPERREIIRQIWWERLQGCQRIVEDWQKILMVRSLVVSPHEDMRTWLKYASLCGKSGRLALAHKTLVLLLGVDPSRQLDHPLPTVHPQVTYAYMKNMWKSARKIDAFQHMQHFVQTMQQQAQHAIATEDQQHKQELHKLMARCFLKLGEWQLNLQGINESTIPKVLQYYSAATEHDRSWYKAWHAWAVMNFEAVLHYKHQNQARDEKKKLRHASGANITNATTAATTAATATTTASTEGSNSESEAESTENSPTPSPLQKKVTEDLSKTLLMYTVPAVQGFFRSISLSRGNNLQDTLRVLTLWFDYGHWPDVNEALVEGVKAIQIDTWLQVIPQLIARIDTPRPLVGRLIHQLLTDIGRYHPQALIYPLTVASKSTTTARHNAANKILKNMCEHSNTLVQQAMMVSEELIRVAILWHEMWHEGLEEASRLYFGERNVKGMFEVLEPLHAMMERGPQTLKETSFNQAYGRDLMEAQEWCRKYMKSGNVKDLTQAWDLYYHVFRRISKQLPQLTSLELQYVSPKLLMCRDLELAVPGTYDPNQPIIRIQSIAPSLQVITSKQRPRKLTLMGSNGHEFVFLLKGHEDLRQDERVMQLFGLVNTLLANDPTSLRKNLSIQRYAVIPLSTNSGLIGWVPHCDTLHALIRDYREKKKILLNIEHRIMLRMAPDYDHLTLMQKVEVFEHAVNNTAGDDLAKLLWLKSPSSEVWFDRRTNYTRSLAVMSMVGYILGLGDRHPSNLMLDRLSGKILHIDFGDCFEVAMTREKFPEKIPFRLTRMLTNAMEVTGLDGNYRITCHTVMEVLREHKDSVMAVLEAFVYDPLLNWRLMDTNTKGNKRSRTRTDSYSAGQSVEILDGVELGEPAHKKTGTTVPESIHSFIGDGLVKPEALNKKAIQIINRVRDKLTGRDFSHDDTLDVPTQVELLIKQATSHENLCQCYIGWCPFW
Outline: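 mTOR (0.5 nM) was incubated at rt with ATP (8 μM final) and GFP-4EBP1 (400 nM final) in 50 mM HEPES pH 7.5, 10 mM MnCl2, 50 mM NaCl, 1 mM EGTA, 1 mM DTT. EDTA stop with Tb3+-anti-p4EBP1 [pThr46] antibody (0.5 nM); TR-FRET read 15 min later.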

PI3K alpha = target: T4, PI3K alpha (Homo sapiens, UniProt P42336); assay: PI3K alpha kinase assay (Kinase-Glo luminescence); format: biochemical
T4 construct: p85(iSH2) fusion partner (see partner chain) (N); His tag (C); made in house; host or cells: baculovirus; Tn5 (Trichoplusia ni) or TiniPro insect cells
T4 sequence (P42336 with tags, fused parts or gaps limits assumed): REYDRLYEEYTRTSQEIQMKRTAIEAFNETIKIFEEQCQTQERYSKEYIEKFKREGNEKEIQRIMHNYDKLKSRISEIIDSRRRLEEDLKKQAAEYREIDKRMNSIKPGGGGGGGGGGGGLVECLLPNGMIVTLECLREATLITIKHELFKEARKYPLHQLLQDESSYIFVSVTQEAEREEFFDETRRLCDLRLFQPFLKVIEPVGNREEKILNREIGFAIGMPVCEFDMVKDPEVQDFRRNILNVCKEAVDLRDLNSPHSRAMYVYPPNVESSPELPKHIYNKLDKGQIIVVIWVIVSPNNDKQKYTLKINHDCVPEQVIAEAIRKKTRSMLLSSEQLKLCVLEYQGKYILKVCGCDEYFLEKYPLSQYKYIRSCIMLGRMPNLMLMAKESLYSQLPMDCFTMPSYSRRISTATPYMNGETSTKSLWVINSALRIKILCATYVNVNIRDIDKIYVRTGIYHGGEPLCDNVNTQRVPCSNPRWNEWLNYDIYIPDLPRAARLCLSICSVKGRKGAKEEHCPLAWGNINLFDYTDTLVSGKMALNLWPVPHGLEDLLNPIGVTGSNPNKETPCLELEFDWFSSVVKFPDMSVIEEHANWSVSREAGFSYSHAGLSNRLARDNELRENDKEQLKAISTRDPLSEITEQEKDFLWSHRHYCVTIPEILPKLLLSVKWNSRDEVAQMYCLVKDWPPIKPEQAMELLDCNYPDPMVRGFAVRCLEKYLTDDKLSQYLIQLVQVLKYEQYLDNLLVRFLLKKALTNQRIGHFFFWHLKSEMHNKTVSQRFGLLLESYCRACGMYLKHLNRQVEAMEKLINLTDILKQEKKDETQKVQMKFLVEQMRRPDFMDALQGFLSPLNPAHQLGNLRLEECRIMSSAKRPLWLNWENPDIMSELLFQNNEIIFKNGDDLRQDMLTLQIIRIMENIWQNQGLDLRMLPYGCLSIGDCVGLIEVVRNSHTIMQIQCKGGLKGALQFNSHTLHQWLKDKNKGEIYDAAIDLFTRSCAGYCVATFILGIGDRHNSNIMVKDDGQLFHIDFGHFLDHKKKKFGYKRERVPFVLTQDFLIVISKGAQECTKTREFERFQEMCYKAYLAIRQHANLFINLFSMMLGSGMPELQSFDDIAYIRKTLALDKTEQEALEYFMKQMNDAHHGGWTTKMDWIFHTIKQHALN
Outline: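 PI3K alpha at 10 nM with 1 μM ATP and 10 μg/mL phosphatidylinositol in 10 mM TRIS pH 7.5, 3 mM MgCl2, 50 mM NaCl, 0.05% CHAPS, 1 mM DTT, 60 min at room temperature. Remaining ATP read by Kinase-Glo luminescence. IC50 by 4-parameter fit over 8 concentrations.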

PI3K gamma = target: T5, PI3K gamma (Homo sapiens, UniProt P48736); assay: PI3K gamma kinase assay (Kinase-Glo luminescence); format: biochemical
T5 construct: His tag (C); made in house; host or cells: baculovirus (pVL1393); Tn5 or TiniPro insect cells; construct from Roger Williams lab, MRC LMB
T5 sequence (P48736 144-1102 limits assumed): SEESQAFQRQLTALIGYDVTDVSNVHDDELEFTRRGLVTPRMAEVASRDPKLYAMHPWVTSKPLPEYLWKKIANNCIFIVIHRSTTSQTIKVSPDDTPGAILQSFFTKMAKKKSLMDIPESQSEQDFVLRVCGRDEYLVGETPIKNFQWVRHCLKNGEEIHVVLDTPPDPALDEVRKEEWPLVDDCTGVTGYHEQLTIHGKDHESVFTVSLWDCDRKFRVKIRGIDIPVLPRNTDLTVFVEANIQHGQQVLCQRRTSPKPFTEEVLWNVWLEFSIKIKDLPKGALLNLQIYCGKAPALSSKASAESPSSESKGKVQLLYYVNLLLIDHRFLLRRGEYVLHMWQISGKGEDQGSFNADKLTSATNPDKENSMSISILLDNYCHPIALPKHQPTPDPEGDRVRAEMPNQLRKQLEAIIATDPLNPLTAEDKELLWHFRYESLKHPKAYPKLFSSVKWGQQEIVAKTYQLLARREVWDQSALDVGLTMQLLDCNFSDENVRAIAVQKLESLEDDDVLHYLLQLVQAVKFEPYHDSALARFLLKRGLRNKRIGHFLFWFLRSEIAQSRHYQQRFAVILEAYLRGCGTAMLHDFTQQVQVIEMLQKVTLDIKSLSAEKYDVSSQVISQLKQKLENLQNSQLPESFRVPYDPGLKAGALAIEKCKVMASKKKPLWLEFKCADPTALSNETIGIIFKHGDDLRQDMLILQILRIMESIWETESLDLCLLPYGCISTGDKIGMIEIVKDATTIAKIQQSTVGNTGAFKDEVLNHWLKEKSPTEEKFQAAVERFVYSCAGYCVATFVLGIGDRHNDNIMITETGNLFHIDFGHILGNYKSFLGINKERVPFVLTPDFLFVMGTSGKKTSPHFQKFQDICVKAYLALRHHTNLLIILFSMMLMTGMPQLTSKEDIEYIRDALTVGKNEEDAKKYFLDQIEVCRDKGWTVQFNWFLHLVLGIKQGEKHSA
Description: as §2, §3, §4, §5

[2] = system: PKB Ser473 phosphorylation in Rat1-myr-HA-p110 beta cells; assay: Reverse protein array assay, PKB Ser473 phosphorylation in Rat1-myr-p110 beta cells; format: cell-based; conditions: 0.5 h, pAkt Ser473, 30 minutes incubation, read-out: p-PKB IC50
Outline: as §1

[3] = system: PKB Ser473 phosphorylation in Rat1-myr-HA-p110 delta cells; assay: Reverse protein array assay, PKB Ser473 phosphorylation in Rat1-myr-p110 delta cells; format: cell-based; conditions: read-out: p-PKB IC50
Outline: as §1

Solubility at pH 6.8 = format: physicochemical; conditions: pH 6.8, aqueous buffer, thermodynamic from solid; read-out: solubility
Excerpt: The physicochemical properties of relevance for the absorption of the compound, such as the solubility and the membrane permeability, especially at a pH close to neutral pH can be measured using the procedure as described by L. ZHOU et al. in JOURNAL OF PHARMACEUTICAL SCIENCES, VOL. 96, NO. 11, p. 3052-3071 (2007) for the solubility at pH 6.8 and the procedure as described by F. Wohnsland and B. Faller in Journal of Medicinal Chemistry Vol 44, p. 923-930 (2001) for the Parallel Artificial Membrane Permeability Assay (PAMPA) at pH 6.8.

Row | SMILES | IC50 [1] [nM] | IC50 (PI3K delta) [nM] | IC50 (PI3K beta) [nM] | IC50 (mTOR) [nM] | IC50 (PI3K alpha) [nM] | IC50 (PI3K gamma) [nM] | IC50 [2] [nM] | IC50 [3] [nM] | solubility (Solubility at pH 6.8) [µg/mL]
1 | CCn1nccc1-n1c(=O)n(C)c2cnc3ccc(-c4ccc(OC)c(OC)c4)cc3c21 [Example 1.2, 8-(3,4-Dimethoxy-phenyl)-1-(2-ethyl-2H-pyrazol-3-yl)-3-methyl-1,3-dihydro-imidazo[4,5-c]quinolin-2-one] | 33 | 61 | 280 | 155 | 50 | 216 | 21 | 66 | –
2 | Cc1nn(C)cc1-n1c(=O)n(C)c2cnc3ccc(-c4ccc(OCCOCc5ccccc5)nc4)cc3c21 [Example 19, 8-[6-(2-Benzyloxy-ethoxy)-pyridin-3-yl]-1-(1,3-dimethyl-1H-pyrazol-4-yl)-3-methyl-1,3-dihydro-imidazo[4,5-c]quinolin-2-one] | – | 468 | – | – | 482 | 971 | – | – | –
3 | Cc1nn(C)cc1-n1c(=O)n(C)c2cnc3ccc(-c4cncc(N)c4)cc3c21 [Example 45] | – | – | – | – | – | 283 | – | – | –
4 | COc1ncc(-c2ccc3ncc4c(c3c2)n(-c2cn(C)nc2C)c(=O)n4C)cc1C(=O)O [Example 124, 5-[1-(1,3-Dimethyl-1H-pyrazol-4-yl)-3-methyl-2-oxo-2,3-dihydro-1H-imidazo[4,5-c]quinolin-8-yl]-2-methoxy-nicotinic acid] | – | 20 | 83 | 53 | 37 | 118 | – | – | –
5 | CCn1cc(-n2c(=O)n(C)c3cnc4ccc(-c5cnc(COC)c(NC)c5)cc4c32)c(C)n1 [Example 160.2, 1-(1-Ethyl-3-Methyl-1H-pyrazol-4-yl)-8-(6-methoxymethyl-5-methylamino-pyridin-3-yl)-3-methyl-1,3-dihydro-imidazol[4,5-c]quinolin-2-one] | – | 16 | 130 | 25 | 39 | – | – | – | 237 (≈ 518 µM)
6 | Cc1nn(C)cc1-n1c(=O)n(C)c2cnc3ccc(-c4cncc(CN)c4)cc3c21 [Example 230, 8-(5-Aminomethyl-pyridin-3-yl)-1-(1,3-dimethyl-1H-pyrazol-4-yl)-3-methyl-1,3-dihydro-imidazo[4,5-c]quinolin-2-one] | – | 437 | 344 | 465 | 100 | – | – | – | > 399
7 | Cc1nn(C)cc1-n1c(=O)n(C)c2cnc3ccc(-c4cncc(CNS(C)(=O)=O)c4)cc3c21 [Example 232] | – | 60 | 101 | 56 | 44 | – | – | – | 83 (≈ 174 µM)

Continued, values first:

Row | IC50 [1] [nM] | IC50 (PI3K delta) [nM] | IC50 (PI3K beta) [nM] | IC50 (mTOR) [nM] | IC50 (PI3K alpha) [nM] | IC50 (PI3K gamma) [nM] | IC50 [2] [nM] | IC50 [3] [nM] | solubility (Solubility at pH 6.8) [µg/mL] | SMILES
8 | 120 | 394 | – | – | 78 | 559 | 138 | 473 | – | CCOc1ccc(-c2ccc3ncc4c(c3c2)n(-c2cc(C(F)(F)F)nn2C)c(=O)n4C)cn1 [Example 3.2, 8-(6-Ethoxy-pyridin-3-yl)-3-methyl-1-(2-methyl-5-trifluoromethyl-2H-pyrazol-3-yl)-1,3-dihydro-imidazo[4,5-c]quinolin-2-one]
9 | 237 | 228 | 473 | – | 207 | – | 510 | 772 | > 473 | CCOc1ccc(-c2ccc3ncc4c(c3c2)n(-c2c(C)nn(CCOC)c2C)c(=O)n4C)cn1 [Example 3.11, 8-(6-Ethoxy-pyridin-3-yl)-1-[1-(2-methoxy-ethyl)-3,5-dimethyl-1H-pyrazol-4-yl]-3-methyl-1,3-dihydro-imidazo[4,5-c]quinolin-2-one]
10 | 187 | 57 | 139 | – | 46 | – | 516 | 224 | > 487 | CCOc1cc(-c2ccc3ncc4c(c3c2)n(-c2c(C)nn(CCOC)c2C)c(=O)n4C)cnc1C [Example 85.2, 8-(5-Ethoxy-6-methyl-pyridin-3-yl)-1-[1-(2-methoxy-ethyl)-3,5-dimethyl-1H-pyrazol-4-yl]-3-methyl-1,3-dihydro-imidazo[4,5-c]quinolin-2-one]
11 | – | 15 | 23 | < 3 | 5 | 138 | – | – | – | COc1ccc(-c2ccc3ncc4c(c3c2)n(-c2cn(CC(=O)O)nc2C)c(=O)n4C)cn1 [Example 101, {4-[8-(6-Methoxy-pyridin-3-yl)-3-methyl-2-oxo-2,3-dihydro-imidazo[4,5-c]quinolin-1-yl]-3-methyl-pyrazol-1-yl}-acetic acid]
12 | 124 | 70 | 327 | – | 70 | – | 494 | 559 | 479 (≈ 986 µM) | COCCn1nc(C)c(-n2c(=O)n(C)c3cnc4ccc(-c5cncc(NC(C)C)c5)cc4c32)c1C [Example 177.2, 8-(5-Isopropylamino-pyridin-3-yl)-1-[1-(2-methoxy-ethyl)-3,5-dimethyl-1H-pyrazol-4-yl]-3-methyl-1,3-dihydro-imidazo[4,5-c]quinolin-2-one]
